# Experimental data published in paper PMC9925730, “Controlled sequential in situ self-assembly and disassembly of a fluorogenic cisplatin prodrug for cancer theranostics” (Nature Communications, 2023).
# “And” between values parts separate entries of the source, which are not always exact repeats. Equal entries are not always repeated.
# Legend:
# [1] = Urine and faeces analysis by ICP-OES (Pt element); type: in vivo, mice; design: Pt in urine / Pt in feces: unit not given beside the values
# Protocol: page 47: determined using ELISA kits according to manufacturer 's protocol. Determination of the blood circulation half-life. […], or CDDP (at a dose of 2.25 mg kg-1 Pt) was i.v. injected into healthy female BALB/c nude mice (6-8 weeks old). […] The collected blood was digested with concentrated HNO3 (65-70%, 2 mL) and HCl (36~38%, 1 mL) at 90 °C overnight. The residues were then diluted with 5 mL 2% HNO3 and 5% HCl solution, and the concentrations of Pt element were determined by ICP-OES, which were further applied to calculate the contents of Pt element in the blood. The plot of the percentage of Pt element remained in the blood versus injection time to yield the pharmacokinetic time. Urine and Faeces analysis. […] Urine and faeces were collected at 2 (for 0-2 h), 4 (for 2-4 h), 8 (for 4- 8 h) and 12 h (for […]), which were diluted in methanol and centrifuged at 3,600 × g for 10 min, followed by filtering via a 0.22 μm syringe filter. The solutions were analyzed by HPLC (660 nm detection) to characterize all the mCy-containing compounds. Using the established standard curves for […] Cy-COOH, the amount of each compound in the urine and faeces could be calculated, which were further applied to determine the percentage of them in the urine and faeces. The data were summarized in Supplementary Tables 5-8. […] Urine and faeces were collected and weighed. The urine and faeces were digested with concentrated HNO3 (65~70%) and HCl (36~38%) at 90 °C for 24 h. The solution was diluted to 5 mL 2% HNO3 and 5% HCl solution, and the concentration of Pt element was measured by ICP-OES, which was further applied to calculate the percentage of Pt in corresponding urine and faeces. The data were summarized in Supplementary Tables 9 and 10. 47
# [2] = General design summary of signals and cytotoxicity (Fig. 1a)
# Source text: P-CyPt is designed to (1) offer activatable near-infrared (NIR) FL and PA signals for bimodality imaging through ALP-mediated in situ self-assembly and (2) release CDDP for on-demand therapy via GSH-triggered disassembly (Fig. 1a). […] After systemic administration, P-CyPt as a small molecule can extravasate and penetrate deeply into tumor tissues (Fig. 1b). In tumor tissues that are membrane-bound ALP positive, rapid dephosphorylation of P-CyPt by the membrane-bound ALP generates CyPt, switching on NIR FL (λem = 710 nm) and PA signals (λ = 700 nm); moreover, CyPt with increased hydrophobicity is susceptible to self-assembly into Pt(IV) nanoparticles (Pt^IVNPs), which turns on another PA signal (λ = 750 nm) resulting from the aggregation-caused bathochromic shift. The on-site formed Pt^IVNPs can anchor on the cell membranes, which attenuate diffusion, prolong retention, and enhance translocation into cells[32],[33]. Within tumor cells, the abundant endogenous GSH can reduce Pt(IV) into Pt(II), producing negatively charged Cy-COOH that promotes NPs disassembly and accelerates release of CDDP intracellularly. This process dramatically raises intracellular CDDP’s concentration while depletes GSH’s level to effectively kill tumor cells. Moreover, the disassembly of Pt^IVNPs into Cy-COOH further increases NIR FL (called as “ON-ON”) as the aggregation-caused quenching (ACQ) effect is eliminated; however, the PA signal at 750 nm is turned off but the PA signal at 700 nm is kept at “ON” state. The sequential switches in NIR FL and PA bimodal imaging signals can allow P-CyPt to reliably monitor the ALP-triggered in situ self-assembly and GSH-driven disassembly process in vivo, facilitating to guide precise chemotherapy of tumors.
# [3] = Urine and faeces analysis by HPLC (mCy-containing compounds); type: in vivo; conditions: Time period 8-12 h; individual mice
# [4] = Urine and faeces analysis by ICP-OES (Pt element); type: in vivo, mice; design: Pt in urine / Pt in feces: unit not given beside the values; remark: listed apart in the source
# [5] = i.v. 2.25 mg kg-1 Pt, 0-2 h, ICP-OES
structure (smiles),measurement,setting,value
CC1(C)C(/C=C/C2=C3Oc4cc(O)c(Cl)cc4C=C3CCC2)=[N+](CCCNC(=O)[C@@H](Cc2ccccc2)NC(=O)[C@@H](Cc2ccccc2)NC(=O)CCC(=O)[O][Pt]([NH2])([NH2])([OH])([Cl])[Cl])c2ccccc21 [CyPt],Percentage of Pt element excreted to the faeces,[1]; 2-4 h,16.51 ± 1.34%
same,Percentage of Pt element excreted to the faeces,[1]; 4-8 h,21.52 ± 1.73%
same,Percentage of Pt element excreted to the faeces,[1]; [5],0.63 ± 0.21%
same,Cytotoxicity,[2],Low
same,FL at 710 nm,[2],High
same,PA at 700 nm,[2],High
same,PA at 750 nm,[2],Low
same,"Compound found in excreta (%), Supplementary Table S5",[3],0%
same,"Compound found in excreta (%), Supplementary Table S6",[3],0.6127% and 0.8857% and 0.7667%
same,"Compound found in excreta (%), Supplementary Table S7",[3],0.79% and 1.63% and 1.075%
same,Percentage of Pt element excreted to the faeces,[4]; 8-12 h,3.69 ± 0.77%
CC1(C)C(/C=C/C2=C3Oc4cc(OP(=O)(O)O)c(Cl)cc4C=C3CCC2)=[N+](CCCNC(=O)[C@@H](Cc2ccccc2)NC(=O)[C@@H](Cc2ccccc2)NC(=O)CCC(=O)[O][Pt]([NH2])([NH2])([OH])([Cl])[Cl])c2ccccc21 [P-CyPt],Percentage of Pt element excreted to the faeces,[1]; 2-4 h,5.92 ± 0.64%
same,Percentage of Pt element excreted to the urine,[1]; 2-4 h,13.38 ± 1.45%
same,Percentage of Pt element excreted to the faeces,[1]; 4-8 h,16.94 ± 1.87%
same,Percentage of Pt element excreted to the urine,[1]; 4-8 h,9.24 ± 1.49%
same,Percentage of Pt element excreted to the urine,[1]; 8-12 h,3.41 ± 0.84%
same,Pt in urine,"[1]; Fig.6g, 0-2 h, mean of 3 mice",15.772
same,Pt in urine,"[1]; Fig.6g, 0-2 h, single mice",15.461 and 17.665 and 14.190
same,Pt in urine,"[1]; Fig.6g, 2-4 h, mean of 3 mice",13.380
same,Pt in urine,"[1]; Fig.6g, 2-4 h, single mice",13.090 and 14.953 and 12.095
same,Pt in urine,"[1]; Fig.6g, 4-8 h, mean of 3 mice",9.236
same,Pt in urine,"[1]; Fig.6g, 4-8 h, single mice",9.456 and 10.608 and 7.644
same,Pt in urine,"[1]; Fig.6g, 8-12 h, mean of 3 mice",3.408
same,Pt in feces,"[1]; Fig.6h, 0-2 h, mean of 3 mice",0.386
same,Pt in feces,"[1]; Fig.6h, 0-2 h, single mice",0.346 and 0.489 and 0.323
same,Pt in feces,"[1]; Fig.6h, 2-4 h, mean of 3 mice",5.927
same,Pt in feces,"[1]; Fig.6h, 2-4 h, single mice",5.543 and 6.667 and 5.573
same,Pt in feces,"[1]; Fig.6h, 4-8 h, mean of 3 mice",16.944
same,Pt in feces,"[1]; Fig.6h, 4-8 h, single mice",16.548 and 18.982 and 15.301
same,Pt in feces,"[1]; Fig.6h, 8-12 h, mean of 3 mice",4.404
same,Pt accumulatively cleared (urine + faeces),[1]; during 12 h,~ 69.4%
same,Pt in feces,"[1]; feces collected 0-2 h, mouse-1",0.346
same,Pt in feces,"[1]; feces collected 0-2 h, mouse-2",0.489
same,Pt in feces,"[1]; feces collected 0-2 h, mouse-3",0.323
same,Pt in feces,"[1]; feces collected 2-4 h, mouse-1",5.543
same,Pt in feces,"[1]; feces collected 2-4 h, mouse-2",6.667
same,Pt in feces,"[1]; feces collected 2-4 h, mouse-3",5.573
same,Pt in feces,"[1]; feces collected 4-8 h, mouse-1",16.548
same,Pt in feces,"[1]; feces collected 4-8 h, mouse-2",18.982
same,Pt in feces,"[1]; feces collected 4-8 h, mouse-3",15.301
same,Pt in feces,"[1]; feces collected 8-12 h, mouse-1",4.215
same,Pt in feces,"[1]; feces collected 8-12 h, mouse-3",4.002
same,Percentage of Pt element excreted to the faeces,[1]; [5],0.38 ± 0.090%
same,Percentage of Pt element excreted to the urine,[1]; [5],15.78 ± 1.76%
same,"Pt in urine, mean","[1]; urine collected 0-2 h, mean of 3 mice",15.772
same,Pt in urine,"[1]; urine collected 0-2 h, mouse-1",15.461
same,Pt in urine,"[1]; urine collected 0-2 h, mouse-2",17.665
same,Pt in urine,"[1]; urine collected 0-2 h, mouse-3",14.190
same,"Pt in urine, mean","[1]; urine collected 2-4 h, mean of 3 mice",13.380
same,Pt in urine,"[1]; urine collected 2-4 h, mouse-1",13.090
same,Pt in urine,"[1]; urine collected 2-4 h, mouse-2",14.953
same,Pt in urine,"[1]; urine collected 2-4 h, mouse-3",12.095
same,"Pt in urine, mean","[1]; urine collected 4-8 h, mean of 3 mice",9.236
same,Pt in urine,"[1]; urine collected 4-8 h, mouse-1",9.456
same,Pt in urine,"[1]; urine collected 4-8 h, mouse-2",10.608
same,Pt in urine,"[1]; urine collected 4-8 h, mouse-3",7.644
same,"Pt in urine, mean","[1]; urine collected 8-12 h, mean of 3 mice",3.408
same,Pt in urine,"[1]; urine collected 8-12 h, mouse-1",3.228
same,Pt in urine,"[1]; urine collected 8-12 h, mouse-2",4.327
same,Pt in urine,"[1]; urine collected 8-12 h, mouse-3",2.669
same,Cytotoxicity,[2],Low
same,FL at 710 nm,[2],Low
same,PA at 700 nm,[2],Low
same,PA at 750 nm,[2],Low
same,"Compound found in excreta (%), Supplementary Table S5",[3],1.424% and 1.642% and 1.178%
same,"Compound found in excreta (%), Supplementary Table S6",[3],0.04756% and 0.06874% and 0.05951%
same,Percentage of Pt element excreted to the faeces,[4]; 8-12 h,4.40 ± 0.52%
same,Pt in urine,"[4]; Fig.6g, 8-12 h, single mice",3.228 and 4.327 and 2.669
same,Pt in feces,"[4]; Fig.6h, 8-12 h, single mice",4.215 and 4.995 and 4.002
same,Pt in feces,"[4]; feces collected 8-12 h, mouse-2",4.995
